Measurements as given in ChEMBL document CHEMBL4619745, “Identification of 2-((2,3-dihydrobenzo[b][1,4]dioxin-6-yl)amino)-N-phenylpropanamides as a novel class of potent DprE1 inhibitors” (Bioorg Med Chem Lett, 2020).
Converted amounts (≈) assume the structure as drawn.

Key:
[1] = Lipophilicity, log D of the compound at pH 7.4; type: physicochemical; conditions: buffer
[2] = system: Mycobacterium tuberculosis; experiment: Antimycobacterial activity against Mycobacterium tuberculosis H37Rv; type: functional
[3] = Inhibition of Mycobacterium tuberculosis DprE1
HepG2 = experiment: Cytotoxicity against human HepG2 cells assessed as reduction in cell viability; type: cell-based

| SMILES | logD [1] | MIC [2] [µM] | IC50 [3] [µM] | pIC50 [3] | IC50 (HepG2) [µM] |
| --- | --- | --- | --- | --- | --- |
| CC(C(=O)Nc1ccc(Br)cc1)N(C)c1ccc2c(c1)OCCO2 (centres undefined) | 6.7 | 2.5 (≈ 0.978 µg/mL) | 0.063 | 7.2 |  |
| CCC(Nc1ccc2c(c1)OCCO2)C(=O)Nc1ccc(Br)cc1 (centres undefined) | 6 | 62 (≈ 24.3 µg/mL) | 3.98 | 5.4 |  |
| COc1cc(NC(C)C(=O)Nc2ccc(Br)cc2)cc(OC)c1 (centres undefined) |  |  | 25.1 | 4.6 |  |
| CNC(=O)C(C)Nc1ccc2c(c1)OCCO2 (centres undefined) |  | > 125 | 31.6 | 4.5 |  |
| CC(Oc1ccc2c(c1)OCCO2)C(=O)Nc1ccc(Br)cc1 (centres undefined) | 6.2 | 12 (≈ 4.54 µg/mL) | 0.2 | 6.7 |  |
| CNC(=O)c1ccc(NC(=O)C(C)Nc2ccc3c(c2)OCCO3)cc1 (centres undefined) | 2.4 |  | > 100 | < 4 |  |
| CC(Nc1ccc2c(c1)OCCO2)C(=O)Nc1nc2ccccc2[nH]1 (centres undefined) | 3.7 | 62 (≈ 21 µg/mL) | 3.98 | 5.4 |  |
| CC(Nc1ccc2c(c1)OCCO2)C(=O)Nc1ccc(Br)cn1 (centres undefined) | 5.4 | 80 (≈ 30.3 µg/mL) | 6.31 | 5.2 |  |
| CC(Nc1ccc2c(c1)OCCO2)C(=O)Nc1ccc(C(F)(F)F)cc1 (centres undefined) |  |  | 0.126 | 6.9 |  |
| CC(Nc1cnc2c(c1)OCCO2)C(=O)Nc1ccc(Br)cc1 (centres undefined) | 4 | 62 (≈ 23.5 µg/mL) | 2 | 5.7 |  |
| CC(Nc1ccc2c(c1)OCCCO2)C(=O)Nc1ccc(Br)cc1 (centres undefined) | 5.7 | 4 (≈ 1.57 µg/mL) | 0.158 | 6.8 |  |
| CC(Nc1ccc2c(c1)OCCO2)C(=O)Nc1ccc2cc[nH]c2c1 (centres undefined) | 4 | 32 (≈ 10.8 µg/mL) | 0.794 | 6.1 |  |
| CC(Nc1ccc2c(c1)OCO2)C(=O)Nc1ccc(Br)cc1 (centres undefined) |  |  | 1 | 6 |  |
| O=C1C(Cc2ccc3c(c2)OCCO3)CCCN1c1ccc(Br)cc1 (centres undefined) | 5.8 | 110 (≈ 44.3 µg/mL) | 63.1 | 4.2 |  |
| CC(Nc1ccc2c(c1)OCCO2)C(=O)Nc1ccccc1 (centres undefined) | 4.3 | > 125 | 63.1 | 4.2 |  |
| CC(C)C(Nc1ccc2c(c1)OCCO2)C(=O)Nc1ccc(Br)cc1 (centres undefined) | 6.6 | > 125 | 39.8 | 4.4 |  |
| C[C@@H](Nc1ccc2c(c1)OCCO2)C(=O)Nc1ccc(Br)cc1 | 5.5 | 6.5 (≈ 2.45 µg/mL) | 0.251 | 6.6 |  |
| CC(Nc1ccc2c(c1)NC(=O)CO2)C(=O)Nc1ccc(Br)cc1 (centres undefined) | 4.2 |  | > 100 | < 4 |  |
| Cc1ccc(NC(=O)C(C)Nc2ccc3c(c2)OCCO3)cc1 (centres undefined) | 4.8 | 125 (≈ 39 µg/mL) | 15.8 | 4.8 |  |
| CC(Nc1ccc2c(c1)NCCC2)C(=O)Nc1ccc(Br)cc1 (centres undefined) | 6 | 125 (≈ 46.8 µg/mL) | 1.26 | 5.9 |  |
| CC(Nc1ccc2c(c1)OCCO2)C(=O)Nc1ccc(Cl)cc1 (centres undefined) | 5.2 | 8 (≈ 2.66 µg/mL) | 0.398 | 6.4 |  |

| SMILES | logD [1] | MIC [2] [µM] | IC50 [3] [µM] | pIC50 [3] | IC50 (HepG2) [µM] |
| --- | --- | --- | --- | --- | --- |
| CC(Nc1ccc2c(c1)OCCO2)C(=O)Nc1ccc(C#N)cc1 (centres undefined) | 4.2 | 31 (≈ 10 µg/mL) | 2 | 5.7 |  |
| COc1cccc(NC(C)C(=O)Nc2ccc(Br)cc2)c1 (centres undefined) |  |  | 1.59 | 5.8 |  |
| CC(Cc1ccc2c(c1)OCCO2)C(=O)Nc1ccc(Br)cc1 (centres undefined) |  | 110 (≈ 41.4 µg/mL) | 2 | 5.7 |  |
| CC(Nc1ccc2c(c1)OCCO2)C(=O)Nc1ccc(Br)nc1 (centres undefined) | 4.2 | 32 (≈ 12.1 µg/mL) | 1.59 | 5.8 |  |
| CC(Nc1ccc(Br)cc1)C(=O)Nc1ccc2c(c1)OCCO2 (centres undefined) | 5.3 | 125 (≈ 47.2 µg/mL) | 63.1 | 4.2 |  |
| O=C1C(Cc2ccc3c(c2)OCCO3)CCN1c1ccc(Br)cc1 (centres undefined) | 6 | > 125 | 31.6 | 4.5 |  |
| CC(Nc1ccc2c(c1)NCCO2)C(=O)Nc1ccc(Br)cc1 (centres undefined) | 4.8 | > 125 | 2.51 | 5.6 |  |
| O=C(CNc1ccc2c(c1)OCCO2)Nc1ccc(Br)cc1 | 5.1 | 16 (≈ 5.81 µg/mL) | 0.2 | 6.7 |  |
| CC(Nc1ccc2c(c1)CCCC2)C(=O)Nc1ccc(Br)cc1 (centres undefined) | 7.7 | 16 (≈ 5.97 µg/mL) | 0.631 | 6.2 |  |
| CC(Nc1ccc2c(c1)OCCO2)C(=O)Nc1ccc2cn[nH]c2c1 (centres undefined) | 3 | 31 (≈ 10.5 µg/mL) | 3.98 | 5.4 |  |
| CC(C)(Nc1ccc2c(c1)OCCO2)C(=O)Nc1ccc(Br)cc1 | 6.3 | 4 (≈ 1.57 µg/mL) | 0.126 | 6.9 |  |
| CC(Nc1ccc2c(c1)OCCO2)C(=O)Nc1ccc(-c2cnco2)cc1 (centres undefined) | 3.7 |  | > 100 | < 4 |  |
| CC(Nc1ccc(Br)cc1)C(=O)Nc1ccc(Br)cc1 (centres undefined) |  |  | 3.98 | 5.4 |  |
| CC(Nc1ccc2c(c1)OCCO2)C(=O)NC1CCCCC1 (centres undefined) | 4.4 | > 125 | 39.8 | 4.4 |  |
| CC(Nc1ccc2c(c1)OCCO2)C(=O)N(C)C (centres undefined) | 2.2 | > 125 | 39.8 | 4.4 |  |
| CC(Nc1ccc2c(c1)OCCO2)C(=O)Nc1ccc(-c2cccnc2)cc1 (centres undefined) | 4.2 |  | > 100 | < 4 |  |
| CC(Nc1ccc2c(c1)OCC(=O)N2)C(=O)Nc1ccc(Br)cc1 (centres undefined) | 3.9 |  | > 100 | < 4 |  |
| C[C@H](Nc1ccc2c(c1)OCCO2)C(=O)Nc1ccc(Br)cc1 | 5.5 | 13 (≈ 4.9 µg/mL) | 1 | 6 |  |
| COc1ccc(NC(C)C(=O)Nc2ccc(Br)cc2)cc1OC (centres undefined) | 5.2 | 40 (≈ 15.2 µg/mL) | 2 | 5.7 |  |
| CC(Nc1ccc2c(c1)OCCO2)C(=O)Nc1ccc(Br)cc1 (racemic) | 5.5 | 7.8 (≈ 2.94 µg/mL) | 0.063 | 7.2 | > 100 |
| NNC(=O)c1ccncc1 [ISONIAZID] |  | 1.8 (≈ 0.247 µg/mL) |  |  |  |
